Drawing on BindingDB's records for doi:10.1021/ml100146z (2010), this text covers IC50 for 1 compound.

Broadly, the IC50 is the point on the concentration scale where inhibition reaches its midpoint. Read a low IC50 as greater potency in that assay.

The assay addresses Signal transducer and activator of transcription 3 (Homo sapiens, UniProt P40763). As to the kind of experiment: Inhibition of STAT3 in human HeLa cells after 24 hrs by luciferase reporter gene assay.

Each structure is given as a SMILES string.

Sequence of Signal transducer and activator of transcription 3 (P40763 whole entry): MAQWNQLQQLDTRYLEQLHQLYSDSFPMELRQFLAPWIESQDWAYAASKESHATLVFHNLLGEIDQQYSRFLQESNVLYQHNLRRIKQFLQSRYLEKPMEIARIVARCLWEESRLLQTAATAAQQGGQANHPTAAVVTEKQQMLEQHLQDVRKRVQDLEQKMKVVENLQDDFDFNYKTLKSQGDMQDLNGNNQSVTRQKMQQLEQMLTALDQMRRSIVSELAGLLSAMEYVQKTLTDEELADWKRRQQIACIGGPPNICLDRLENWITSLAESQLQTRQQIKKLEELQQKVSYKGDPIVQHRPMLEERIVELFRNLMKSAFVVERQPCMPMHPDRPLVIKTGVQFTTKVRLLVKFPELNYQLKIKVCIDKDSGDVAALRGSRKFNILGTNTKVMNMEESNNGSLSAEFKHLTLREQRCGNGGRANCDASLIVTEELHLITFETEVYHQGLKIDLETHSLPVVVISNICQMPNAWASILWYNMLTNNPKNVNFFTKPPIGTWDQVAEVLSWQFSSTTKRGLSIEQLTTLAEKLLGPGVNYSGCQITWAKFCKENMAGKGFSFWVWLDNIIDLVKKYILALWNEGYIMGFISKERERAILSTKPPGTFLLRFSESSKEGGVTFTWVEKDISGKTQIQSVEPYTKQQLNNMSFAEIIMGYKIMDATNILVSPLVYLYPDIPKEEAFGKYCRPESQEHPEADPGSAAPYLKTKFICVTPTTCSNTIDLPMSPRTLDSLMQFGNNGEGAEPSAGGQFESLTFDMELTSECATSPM

`O=C(Nc1ccc([N+](=O)[O-])cc1Cl)c1cc(Cl)ccc1O` [5-chloro-N-(2-chloro-4-nitrophenyl)-2-hydroxybenzamide] returned an IC50 of 0.25 µM. That is a sub-micromolar value.
